Data from patent publication US11548870B2, “Compounds useful as inhibitors of helios protein” (Bristol-Myers Squibb Company, priority 2019, dated 2023).

Experiments:
Ikaros = biological target: T1, Ikaros (Homo sapiens, UniProt Q13422); test: Helios Cellular Degradation Assay, Ikaros readout (flow cytometry, Ikaros-Alexa488 antibody staining, 72 h); format: cell-based; settings: Jurkat cells, 72 h incubation, flow cytometry; for Dmax: Jurkat, read-out: Ikaros Dmax
T1 construct: fluorescently labelled antibodies against Helios and Ikaros; endogenous in cells; host or cells: Jurkat cells
In short: (§1)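 Jurkat cells (80,000/well, RPMI+10% FBS) were exposed to compound for 72 h at 37 °C, then fixed, permeabilized and co-stained for 1 h with Ikaros-Alexa488 and Helios-PE antibodies. Intracellular protein levels were read by flow cytometry.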

Helios = biological target: T2, Helios (Homo sapiens, UniProt Q96SW2+Q9UKS7); test: Helios Cellular Degradation Assay (flow cytometry, Helios-PE antibody staining, 72 h); format: cell-based; settings: Jurkat cells, 72 h incubation, flow cytometry; for Dmax: Jurkat, read-out: Helios Dmax
T2 construct: fluorescently labelled antibodies against Helios and Ikaros; endogenous in cells; host or cells: Jurkat cells
In short: as §1

T2 sequence (Q9UKS7 whole entry): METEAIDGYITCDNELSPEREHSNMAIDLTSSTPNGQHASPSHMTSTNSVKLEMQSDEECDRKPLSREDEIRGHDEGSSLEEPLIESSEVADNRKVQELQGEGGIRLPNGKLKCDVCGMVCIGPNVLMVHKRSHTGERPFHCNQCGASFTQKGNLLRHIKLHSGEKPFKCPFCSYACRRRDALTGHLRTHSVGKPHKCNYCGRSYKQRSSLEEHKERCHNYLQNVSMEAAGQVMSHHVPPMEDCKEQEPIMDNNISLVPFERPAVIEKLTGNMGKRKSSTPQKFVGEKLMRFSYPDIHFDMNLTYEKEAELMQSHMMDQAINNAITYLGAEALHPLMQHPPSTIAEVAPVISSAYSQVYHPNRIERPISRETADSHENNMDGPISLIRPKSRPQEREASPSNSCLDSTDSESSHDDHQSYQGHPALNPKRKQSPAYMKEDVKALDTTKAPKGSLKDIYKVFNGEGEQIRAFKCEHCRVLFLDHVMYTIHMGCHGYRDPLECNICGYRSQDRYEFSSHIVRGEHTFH
T2 sequence (Q96SW2 whole entry): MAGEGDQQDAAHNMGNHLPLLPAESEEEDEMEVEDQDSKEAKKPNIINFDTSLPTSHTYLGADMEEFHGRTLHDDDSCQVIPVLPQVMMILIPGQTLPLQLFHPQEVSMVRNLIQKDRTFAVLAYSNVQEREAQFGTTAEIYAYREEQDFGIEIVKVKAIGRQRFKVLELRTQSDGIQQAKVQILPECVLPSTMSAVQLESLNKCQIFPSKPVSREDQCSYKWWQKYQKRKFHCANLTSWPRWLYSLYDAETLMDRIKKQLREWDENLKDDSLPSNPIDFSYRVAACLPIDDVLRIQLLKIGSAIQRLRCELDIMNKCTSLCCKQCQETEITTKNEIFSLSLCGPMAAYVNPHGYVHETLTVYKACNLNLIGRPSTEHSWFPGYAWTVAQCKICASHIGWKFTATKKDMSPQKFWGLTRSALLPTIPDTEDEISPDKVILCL
T2 sequence (Q16531 whole entry partner): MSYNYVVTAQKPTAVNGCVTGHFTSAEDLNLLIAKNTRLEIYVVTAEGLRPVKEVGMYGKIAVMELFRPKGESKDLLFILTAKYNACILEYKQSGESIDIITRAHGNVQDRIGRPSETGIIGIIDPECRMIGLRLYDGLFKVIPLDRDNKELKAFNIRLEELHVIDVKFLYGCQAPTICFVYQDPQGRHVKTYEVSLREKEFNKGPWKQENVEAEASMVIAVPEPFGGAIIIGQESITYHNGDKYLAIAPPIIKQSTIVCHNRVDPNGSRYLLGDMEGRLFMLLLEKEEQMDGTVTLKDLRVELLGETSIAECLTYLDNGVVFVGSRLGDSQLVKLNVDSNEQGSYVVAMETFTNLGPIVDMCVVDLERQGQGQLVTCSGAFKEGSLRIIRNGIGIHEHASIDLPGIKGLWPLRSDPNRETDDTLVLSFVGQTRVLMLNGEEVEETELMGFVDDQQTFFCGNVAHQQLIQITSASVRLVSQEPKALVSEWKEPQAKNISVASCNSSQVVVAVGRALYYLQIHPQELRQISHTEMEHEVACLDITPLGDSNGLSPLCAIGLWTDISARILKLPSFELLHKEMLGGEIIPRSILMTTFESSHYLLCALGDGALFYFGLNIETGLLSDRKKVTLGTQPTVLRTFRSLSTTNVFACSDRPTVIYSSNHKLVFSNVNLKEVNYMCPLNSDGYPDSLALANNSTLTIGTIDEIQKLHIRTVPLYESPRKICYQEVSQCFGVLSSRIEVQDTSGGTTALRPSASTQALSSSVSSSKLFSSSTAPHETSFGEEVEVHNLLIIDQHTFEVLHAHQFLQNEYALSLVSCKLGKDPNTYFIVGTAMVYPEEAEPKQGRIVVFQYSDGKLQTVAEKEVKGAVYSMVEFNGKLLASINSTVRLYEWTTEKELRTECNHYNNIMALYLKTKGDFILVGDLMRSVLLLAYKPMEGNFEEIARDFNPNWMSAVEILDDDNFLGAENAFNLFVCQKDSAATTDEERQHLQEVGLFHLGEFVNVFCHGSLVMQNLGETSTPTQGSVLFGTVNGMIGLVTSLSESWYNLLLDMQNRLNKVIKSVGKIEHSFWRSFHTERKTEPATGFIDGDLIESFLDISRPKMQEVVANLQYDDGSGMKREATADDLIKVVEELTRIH
T1 sequence (Q96SW2 whole entry partner): as the sequence (Q96SW2 whole entry) above
T1 sequence (Q16531 whole entry partner): as the sequence (Q16531 whole entry partner) above
T1 sequence (Q13422 whole entry): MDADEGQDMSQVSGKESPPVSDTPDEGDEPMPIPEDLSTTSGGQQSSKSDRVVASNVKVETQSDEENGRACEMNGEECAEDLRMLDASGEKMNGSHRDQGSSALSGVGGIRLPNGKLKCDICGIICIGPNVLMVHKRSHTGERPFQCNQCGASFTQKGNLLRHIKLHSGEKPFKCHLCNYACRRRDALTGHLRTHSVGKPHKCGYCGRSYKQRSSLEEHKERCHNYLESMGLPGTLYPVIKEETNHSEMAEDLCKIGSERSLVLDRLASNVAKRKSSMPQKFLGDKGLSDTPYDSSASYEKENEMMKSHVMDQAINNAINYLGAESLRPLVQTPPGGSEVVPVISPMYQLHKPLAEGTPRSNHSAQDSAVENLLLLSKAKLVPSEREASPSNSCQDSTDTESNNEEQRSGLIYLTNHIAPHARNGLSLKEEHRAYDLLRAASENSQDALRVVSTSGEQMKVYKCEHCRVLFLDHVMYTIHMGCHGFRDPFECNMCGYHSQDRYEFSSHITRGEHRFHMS

SMILES | DC50 (Ikaros) | Dmax (Ikaros) | DC50 (Helios) | Dmax (Helios)
CN(Cc1ccccc1)Cc1ccnc(-c2ccc3c(c2)CN(C2CCC(=O)NC2=O)C3=O)c1 (centres unmarked) [Example 164, 3-[5-(4-{[Benzyl(methyl)amino]methyl}pyridin-2-yl)-1-oxo-2,3-dihydro-1H-isoindol-2-yl]piperidine-2,6-dione] | > 10 µM | 10% | 0.062 µM | 77%
O=C1CCC(N2Cc3cc(-c4cc(CN5CCC5)ccn4)ccc3C2=O)C(=O)N1 (centres unmarked) [Example 165, 3-(5-{4-[(Azetidin-1-yl)methyl]pyridin-2-yl}-1-oxo-2,3-dihydro-1H-isoindol-2-yl) piperidine-2,6-dione] | > 10 µM | 14% | 0.056 µM | 95%
O=C1CCC(N2Cc3cc(-c4cc(CN5CCOCC5)ccn4)ccc3C2=O)C(=O)N1 (centres unmarked) [Example 166, 3-(5-{4-[(Morpholin-4-yl)methyl]pyridin-2-yl}-1-oxo-2,3-dihydro-1H-isoindol-2-yl) piperidine-2,6-dione] | > 10 µM | 7% | 7.86 µM | 52%
O=C1CCC(N2Cc3cc(-c4cc(CN5CCS(=O)(=O)CC5)ccn4)ccc3C2=O)C(=O)N1 (centres unmarked) [Example 167, 4-({2-[2-(2,6-Dioxopiperidin-3-yl)-1-oxo-2,3-dihydro-1H-isoindol-5-yl]pyridin-4-yl}methyl)-1λ6-thiomorpholine-1,1-dione] | > 10 µM | 12% | > 10 µM | 41%
COc1ccc(CN(C)Cc2ccnc(-c3ccc4c(c3)CN(C3CCC(=O)NC3=O)C4=O)c2)cn1 (centres unmarked) [Example 168, 3-{5-[4-({[(6-Methoxypyridin-3-yl)methyl](methyl)amino}methyl)pyridin-2-yl]-1-oxo-2,3-dihydro-1H-isoindol-2-yl}piperidine-2,6-dione] | > 10 µM | 20% | 0.309 µM | 77%
CN(Cc1ccnc(-c2ccc3c(c2)CN(C2CCC(=O)NC2=O)C3=O)c1)Cc1cccc2[nH]ncc12 (centres unmarked) [Example 169, 3-(5-(4-((((1H-indazol-4-yl)methyl)(methyl)amino)methyl)pyridin-2-yl)-1-oxoisoindolin-2-yl)piperidine-2,6-dione] | > 10 µM | 16% | 0.195 µM | 79%
CN1CCC(N(C)Cc2ccnc(-c3ccc4c(c3)CN(C3CCC(=O)NC3=O)C4=O)c2)CC1 (centres unmarked) [Example 170, 3-(5-(4-((methyl (1-methylpiperidin-4-yl)amino)methyl)pyridin-2-yl)-1-oxoisoindolin-2-yl)piperidine-2,6-dione] | > 10 µM | 2% | > 10 µM | 22%
CN(CCc1ccccc1)Cc1ccnc(-c2ccc3c(c2)CN(C2CCC(=O)NC2=O)C3=O)c1 (centres unmarked) [Example 171, 3-(5-(4-((methyl(phenethyl)amino)methyl)pyridin-2-yl)-1-oxoisoindolin-2-yl)piperidine-2,6-dione] | > 10 µM | 4% | 0.317 µM | 80%
CN(Cc1ccoc1)Cc1ccnc(-c2ccc3c(c2)CN(C2CCC(=O)NC2=O)C3=O)c1 (centres unmarked) [Example 172, 3-(5-(4-(((furan-3-ylmethyl)(methyl)amino)methyl)pyridin-2-yl)-1-oxoisoindolin-2-yl)piperidine-2,6-dione] | > 10 µM | 12% | 0.075 µM | 90%
CN(Cc1ccnc(-c2ccc3c(c2)CN(C2CCC(=O)NC2=O)C3=O)c1)CC1CC1 (centres unmarked) [Example 173, 3-(5-(4-(((cyclopropylmethyl)(methyl)amino)methyl)pyridin-2-yl)-1-oxoisoindolin-2-yl) piperidine-2,6-dione] | > 10 µM | 0% | 0.073 µM | 86%
CN(Cc1ccnc(-c2ccc3c(c2)CN(C2CCC(=O)NC2=O)C3=O)c1)Cc1cncn1C (centres unmarked) [Example 174, 3-(5-(4-((methyl((1-methyl-1H-imidazol-5-yl)methyl)amino)methyl)pyridin-2-yl)-1-oxoisoindolin-2-yl)piperidine-2,6-dione] | > 10 µM | 20% | 5.87 µM | 54%
